Laboratory results as given in patent US12338218B2, “Crystal form of benzimidazole-2-one compound, solvate thereof, crystal form of solvate thereof, and preparation method thereof” (MEDSHINE DISCOVERY INC., priority 2019, dated 2025).
pIC50: −log10 of the molar value.

Columns and labels:
[1] = tested on: lipopolysaccharide (LPS)-induced TNFα production in human peripheral blood mononuclear cells; assay: Inhibition of LPS-induced TNFα production in hPBMC (ELISA); assay type: cell-based
Description: Inhibitory activity of compound 1 on lipopolysaccharide (LPS)-induced TNFα production in human peripheral blood mononuclear cells.
PBMC cells were inoculated into a 96-well plate of cell culture grade at a density of 100,000 cells/100 μL/well. The cell culture medium was RPMI-1640 supplemented with 10% serum. The plate was incubated in a 37° C., 5% CO2 incubator for 2 hours. 16.8 μL/well of the assay compound was added to the cells and then the cells were incubated in a 37° C., 5% CO2 incubator for 60 minutes. 16.8 μL/well of LPS was then added to the cells and the cells were incubated in a 37° C., 5% CO2 incubator for 18 hours. The final DMSO concentration was 0.1%.
In the first step, compound 1 was diluted from a stock concentration to 1.5 mM with 100% DMSO. In the second step, the diluted compound was used as the first point and serially diluted 3-fold with 100% DMSO for 9 points. In the third step, the compound was diluted 125-fold with a serum-free medium, at which time the concentration of DMSO was 0.8%. Then 16.8 μL of the compound diluted with the medium was transferred to a 100 μL cell plate.
The compound was added, and then the cell plate was placed in a 37° C., 5% CO2 incubator and incubated for 1 hour.
In the first step, LPS was diluted with ultrapure water to a stock concentration of 1 mg/mL. […]

Recombinant human PDE4B = Recombinant human PDE4B (Homo sapiens (Human), UniProt Q07343); assay: PDE4B enzyme inhibition, fluorescence polarization (Transcreener AMP2/GMP2); assay type: biochemical
Recombinant human PDE4B, sequence (Q07343 305-736 limits assumed): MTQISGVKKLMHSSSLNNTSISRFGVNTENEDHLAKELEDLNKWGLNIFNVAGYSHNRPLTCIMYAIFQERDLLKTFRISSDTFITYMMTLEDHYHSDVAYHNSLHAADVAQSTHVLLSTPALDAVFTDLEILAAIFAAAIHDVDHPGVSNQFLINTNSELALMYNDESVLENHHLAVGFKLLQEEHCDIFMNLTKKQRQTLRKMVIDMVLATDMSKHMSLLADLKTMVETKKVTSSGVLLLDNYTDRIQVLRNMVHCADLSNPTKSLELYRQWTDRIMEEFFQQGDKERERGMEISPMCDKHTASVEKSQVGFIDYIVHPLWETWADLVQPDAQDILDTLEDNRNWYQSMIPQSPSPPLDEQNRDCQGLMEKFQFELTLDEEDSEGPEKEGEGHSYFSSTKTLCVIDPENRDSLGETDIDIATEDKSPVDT
Description: The biological assay was based on fluorescence polarization measurement of AMP/GMP expression, that is, tracing binding of AMP/GMP antibody to indicate the activity of the enzyme.
Buffer solution for the assay: 10 mM trihydroxymethyl aminomethane-hydrochloric acid buffer solution (Tris-HCl) (pH 7.5), 5 mM MgCl2, 0.01% polyoxyethylene lauryl ether (Brij 35), 1 mM dithiothreitol (DTT), and 1% DMSO.
Enzyme: Recombinant human PDE4B (Genebank Accession Number NM_002600; amino acid 305 terminal) was expressed with baculovirus in Sf9 insect cells using N-terminal GST tag. MW=78 kDa.
Enzyme substrate: 1 μM cAMP
Detection: Transcreener® AMP2/GMP2 antibody and AMP2/GMP2 AlexaFluor633 tracing.
• 1. Dissolving the recombinant human PDE4B enzyme and enzyme substrate (1 μM cAMP) in freshly prepared assay buffer, respectively; • 2. Transferring the above PDE4B enzyme buffer solution to reaction wells; • 3. Adding compound 1 dissolved with 100% DMSO to reaction wells with the PDE4B enzyme buffer solution via acoustic technology (echo 550 nanoliter range) and incubating at room temperature for 10 min; • 4. […] The range of fluorescence polarization determination was Ex/Em=620/688. […]
The fluorescence polarization signal was converted into nM based on AMP/GMP standard curve and % enzyme activity calculated by Excel software relative to the DMSO control. […]

[2] = tested on: PMA-induced ear edema in CD-1 mice; assay: In vivo model of PMA-induced ear edema in CD-1 mice; details: for inhibition rate of ear edema / inhibition rate of ear weight gain: application BID, 10 hours after PMA induction
Description: 1 mL of acetone was added to completely dissolve 1 mg of PMA, and then 800 μL of mother liquor was pipetted and added to 2400 μL of acetone to prepare 0.25 mg/mL PMA.
CD-1 mice were sorted according to ear thickness and body weight. […] 10 μL of PMA with a concentration of 0.25 mg/mL was applied to the front and back sides of the right ear of each mouse.
The mice in the first group were normal mice, and these mice will not be treated in any way; the mice in the second group were given a vehicle; and the mice in the third group, the fourth group, and the fifth group were given compound 1 at a dose of 0.1 mg/ear, 0.3 mg/ear, and 1 mg/ear, respectively. Drugs were applied to the right ear of the mice 30 minutes before and 15 minutes after PMA induction, respectively.
Measurement and sampling: Ten hours after PMA induction, the mice were anesthetized and the thickness of the right ear was measured. After measuring the thickness of the right ear, the mouse was immediately euthanized, and the ear piece was collected and weighed.
The assay data was expressed as mean±standard error of mean (Mean±SEM), and the degree of ear swelling and ear weight were analyzed by one-way analysis of variance (One-way ANOVA), wherein p<0.05 was considered a significant difference.

Structure (SMILES): CCOc1cc([C@@H](CS(C)(=O)=O)n2c(=O)[nH]c3cc(F)ccc32)ccc1OC [Compound 1]
- in vitro activity of inhibiting TNFα production in hPBMC (in words) [1]: excellent in vitro activity
- pIC50 ([1]; Homo sapiens, PBMC, TNFα production in hPBMC, LPS 18 hours, average in triplicate): 7.19
- in vitro activity of inhibiting PDE4B (in words) (Recombinant human PDE4B): excellent in vitro activity
- pIC50 (Recombinant human PDE4B; PDE4B, 1 μM cAMP substrate, average in triplicate): 7.58
- inhibition rate of ear edema ([2]; 0.1 mg/ear): 22%
- inhibition rate of ear weight gain ([2]; 0.1 mg/ear): 39%
- inhibition rate of ear edema ([2]; 0.3 mg/ear): 39%
- inhibition rate of ear weight gain ([2]; 0.3 mg/ear): 46%
- inhibition rate of ear edema ([2]; 1 mg/ear): 88%
- inhibition rate of ear weight gain ([2]; 1 mg/ear): 85%
- effect on the symptoms of PMA-induced ear edema (in words) ([2]; three dose groups of 0.1, 0.3 and 1 mg/ear): significant improvement effect
